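1) Cells in 96-well plates. 2) Compound, 48 h, 5 concentrations. 3) Linear interpolation between surrounding doses. 4) Unreached endpoint = highest concentration. At the GI50, growth is halved. The concentration for full growth arrest is given as TGI.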
Legend:
Assay in all cases: NCI-60 cell line screen, 48 h; in the data active means GI50 below about 0.43 µM; inactive means the rest
[1] = system: K-562 leukemia
[2] = system: MALME-3M melanoma
[3] = system: NCI-H226 lung
[4] = system: OVCAR-8 ovarian
[5] = system: NCI-H460 lung
[6] = system: OVCAR-3 ovarian
[7] = system: IGROV1 ovarian
[8] = system: KM12 colon
[9] = system: U251 CNS
[10] = system: PC-3 prostate
[11] = system: MCF7 breast
[12] = system: UACC-257 melanoma
[13] = system: HCC-2998 colon
[14] = system: HOP-92 NSCLC
[15] = system: UACC-62 melanoma
[16] = system: CAKI-1 renal
[17] = system: A549 NSCLC
[18] = system: MOLT-4 leukemia
[19] = system: SF-295 CNS
[20] = system: BT-549 breast
[21] = system: RXF 393 renal
[22] = system: A498 renal
[23] = system: UO-31 renal
[24] = system: HCT-116 colon
[25] = system: SK-MEL-2 melanoma
[26] = system: HT29 colon
[27] = system: HS 578T breast
[28] = system: ACHN renal

Cc1[nH]ncc1-c1cc2nc(C3CC4CCN3CC4)[nH]c(=O)c2s1 (stereo not given)
> 100 µM: TGI [1] | TGI [3] | TGI [4] | TGI [5] | TGI [6] | TGI [7] | TGI [8] | TGI [9] | TGI [10] | TGI [11] | TGI [13] | TGI [14] | TGI [16] | TGI [17] | TGI [18] | TGI [19] | TGI [23] | TGI [24] | TGI [26] | TGI [27]
29.5 µM: TGI [25]
8.72 µM: TGI [22]
74 µM: TGI [2]
84 µM: TGI [12]
17.6 µM: TGI [15]
inactive: GI50 [1] 6.54 µM | GI50 [2] 6.02 µM | GI50 [3] 2.82 µM | GI50 [4] 3.2 µM | GI50 [5] 2.44 µM | GI50 [6] 3.74 µM | GI50 [7] 3.47 µM | GI50 [8] 4.07 µM | GI50 [9] 2.52 µM | GI50 [10] 4.13 µM | GI50 [11] 2.58 µM | GI50 [12] 5.79 µM | GI50 [13] 7.09 µM | GI50 [14] 5.5 µM | GI50 [15] 3.28 µM | GI50 [16] 2.43 µM | GI50 [17] 2.67 µM | GI50 [18] 5.52 µM | GI50 [19] 2.88 µM | GI50 [20] 2.59 µM | GI50 [21] 2.36 µM | GI50 [22] 1.98 µM | GI50 [23] 2.91 µM | GI50 [24] 1.16 µM | GI50 [25] 8.8 µM | GI50 [26] 3.85 µM | GI50 [27] 3.87 µM | GI50 [28] 1.88 µM
5.96 µM: TGI [21]
29.6 µM: TGI [20]

Reference: PubChem BioAssay (NCI)
